Structures are written as SMILES.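 Assay format: 96-well plates, 48-hour exposure. The concentration for full growth arrest is given as TGI.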

Our source for the TGI values is PubChem BioAssay (NCI).

Among the test systems are SNB-19 CNS; SN12C renal; IGROV1 ovarian; OVCAR-8 ovarian; RPMI-8226 leukemia; HCT-15 colon; OVCAR-3 ovarian; U251 CNS; HL-60(TB) leukemia; COLO 205 colon; UACC-257 melanoma; CCRF-CEM leukemia; MOLT-4 leukemia; M14 melanoma; LOX IMVI melanoma; MCF7 breast; MDA-MB-435; SK-MEL-5 melanoma; TK-10 renal.
Holding throughout (experiment): inhibition of tumour cell growth, NCI panel, 48 h

For the molecule `CC(=O)OCC1OC(n2c(C)cc(C)c(C#N)c2=S)C(OC(C)=O)C(OC(C)=O)C1OC(C)=O` (configuration not stated), the TGI in the test on SNB-19 CNS, in the test with SN12C renal, in the test with IGROV1 ovarian, with OVCAR-8 ovarian, in the test with RPMI-8226 leukemia and with HCT-15 colon was above 100 µM in each case. Besides, the TGI in the test on OVCAR-3 ovarian, with U251 CNS, in the test with HL-60(TB) leukemia, in the test with COLO 205 colon, in the test with UACC-257 melanoma and with CCRF-CEM leukemia was above 100 µM throughout. Moreover, the TGI in the test on MOLT-4 leukemia, with M14 melanoma, with LOX IMVI melanoma, in the test on MCF7 breast, with MDA-MB-435 and in the test on SK-MEL-5 melanoma was above 100 µM in each case. Moreover, in the test on TK-10 renal, the TGI was above 100 µM.

As to `O=c1nc(N2CCNCC2)oc2cc(Cl)oc(=O)c12`, the TGI in the test on SNB-19 CNS came to 36.7 µM; with SN12C renal, 33.1 µM; in the test with IGROV1 ovarian, 16.6 µM; in the test with OVCAR-8 ovarian, 5.67 µM; in the test with RPMI-8226 leukemia, 5.62 µM; with HCT-15 colon it was 15 µM. The TGI was 15.2 µM with OVCAR-3 ovarian; 16 µM in the test with U251 CNS; 8.47 µM in the test on HL-60(TB) leukemia; 19 µM in the test on COLO 205 colon; 27.7 µM in the test with UACC-257 melanoma; 47.8 µM in the test with CCRF-CEM leukemia. For the same molecule, the TGI in the test with MOLT-4 leukemia stood at 7.37 µM; with M14 melanoma it was 7.94 µM; in the test with LOX IMVI melanoma, 5.89 µM; in the test with MCF7 breast it was 17.8 µM; in the test with MDA-MB-435 it was 18.5 µM; in the test on SK-MEL-5 melanoma it was 19 µM. In addition, the TGI in the test with TK-10 renal was 23.9 µM.

In the case of `CC(=O)N(C)CCc1c[nH]c2ccccc12`, the TGI with SNB-19 CNS, in the test on SN12C renal, in the test on IGROV1 ovarian, in the test on OVCAR-8 ovarian, with RPMI-8226 leukemia and with HCT-15 colon was above 100 µM in each case. The TGI in the test on OVCAR-3 ovarian, in the test on U251 CNS, in the test with HL-60(TB) leukemia, in the test with COLO 205 colon, with UACC-257 melanoma and in the test on CCRF-CEM leukemia was above 100 µM throughout. The TGI with MOLT-4 leukemia, in the test with M14 melanoma, in the test on LOX IMVI melanoma, in the test with MCF7 breast, in the test on MDA-MB-435 and in the test with SK-MEL-5 melanoma was above 100 µM in each case. In the test with TK-10 renal, this molecule had a TGI above 100 µM.

For `COC1=C(Br)[C@H](O)[C@@]2(C=C1Br)CC(C(=O)NCCCOc1c(Br)cc(C(O)CNC(C)=O)cc1Br)=NO2` (some centres not stated), the TGI in the test with SNB-19 CNS, with SN12C renal, with IGROV1 ovarian, in the test with OVCAR-8 ovarian, in the test on RPMI-8226 leukemia and in the test with HCT-15 colon was above 10 µM in each case. In addition, the TGI in the test with OVCAR-3 ovarian, in the test on U251 CNS, in the test on HL-60(TB) leukemia, with COLO 205 colon, in the test on UACC-257 melanoma and with CCRF-CEM leukemia was above 10 µM throughout. Besides, the TGI with MOLT-4 leukemia is above 10 µM; in the test with M14 melanoma, above 10 µM; in the test with LOX IMVI melanoma, above 10 µM; in the test on MCF7 breast, above 10 µM; in the test with MDA-MB-435, 5.12 µM; in the test with SK-MEL-5 melanoma, above 10 µM. The TGI in the test with TK-10 renal was above 10 µM.

In the case of `COc1cccc2nc3c(C(=O)NCCN(C)C)cccc3cc12`, the TGI amounted to 15.9 µM in the test with SNB-19 CNS; 8.35 µM in the test with SN12C renal; 11 µM in the test with IGROV1 ovarian; 3.07 µM in the test on OVCAR-8 ovarian; 19.1 µM in the test on RPMI-8226 leukemia; 11.2 µM in the test on HCT-15 colon. In addition, the TGI was 12.3 µM in the test on OVCAR-3 ovarian; 5.46 µM in the test on U251 CNS; 4.48 µM with HL-60(TB) leukemia; 2.55 µM with COLO 205 colon; 5.01 µM with UACC-257 melanoma; 61.3 µM in the test on CCRF-CEM leukemia. The TGI in the test on MOLT-4 leukemia is 21.2 µM; in the test on M14 melanoma it was 4.37 µM; with LOX IMVI melanoma, 2.49 µM; with MCF7 breast it was 8 µM; in the test with MDA-MB-435 it was 9.41 µM; in the test with SK-MEL-5 melanoma it was 3.09 µM. The molecule further returned a TGI with TK-10 renal of 10.8 µM.

As to `O=C1C=C(NCCOCCO)C(=O)c2c(O)ccc(O)c21`, the TGI was above 100 µM with SNB-19 CNS; above 100 µM in the test on IGROV1 ovarian; 86.5 µM with OVCAR-8 ovarian; 78 µM in the test with RPMI-8226 leukemia; 57.1 µM in the test on HCT-15 colon; 65.4 µM in the test on OVCAR-3 ovarian. For the same molecule, the TGI with U251 CNS was determined as 77.9 µM; in the test on HL-60(TB) leukemia it was 40.4 µM; with COLO 205 colon, 32.7 µM; in the test on UACC-257 melanoma, 38.4 µM; with CCRF-CEM leukemia it was 76.2 µM; in the test on MOLT-4 leukemia, 79.7 µM. The TGI was 66.9 µM in the test on M14 melanoma; 30 µM in the test with LOX IMVI melanoma; 40.1 µM in the test with MCF7 breast; 32.6 µM in the test on MDA-MB-435; 25.9 µM in the test on SK-MEL-5 melanoma; above 100 µM in the test on TK-10 renal.

For `Cn1c2c(c3ccccc31)CCN1C(=O)CN(C(=O)C3CCCCC3)CC21` (configuration not stated), the TGI with SNB-19 CNS, with SN12C renal, in the test with IGROV1 ovarian, with OVCAR-8 ovarian, in the test with RPMI-8226 leukemia and in the test on HCT-15 colon was above 100 µM throughout. The TGI with OVCAR-3 ovarian, with U251 CNS, with HL-60(TB) leukemia, in the test on COLO 205 colon, in the test with UACC-257 melanoma and in the test on CCRF-CEM leukemia was above 100 µM in each case. Besides, the TGI in the test with MOLT-4 leukemia, in the test on M14 melanoma, in the test on LOX IMVI melanoma, with MCF7 breast, with MDA-MB-435 and in the test with SK-MEL-5 melanoma was above 100 µM throughout. In the test on TK-10 renal, the TGI was above 100 µM.
